Experiments:
Hb = molecular target: T1, Hb (Homo sapiens, UniProt P68871+P69905); test: Whole blood assay: oxygen equilibrium curves (Hemox Analyzer), change in O2 affinity of Hb; type: cell-based; settings: whole blood incubated 1 h at 37° C., equimolar ratio of hemoglobin to compound; sodium salts of 2B (Enantiomer 1), 4B, 5B used
T1 construct: from tissue
Procedure: Oxygen equilibrium curves (OECs) were collected using a TCS Hemox Analyzer (TCS Scientific Company, New Hope, PA, USA) to measure changes in the binding affinity of O2 to Hb. Whole blood was incubated for 1 h at 37° C. with the indicated compounds in an equimolar ratio of hemoglobin to compound and diluted into TES (2-[[1,3-dihydroxy-2-(hydroxymethyl)propan-2-yl]amino]ethanesulfonic acid)/saline buffer prior to measurements. The diluted samples were then oxygenated with compressed air within the Hemox Analyzer and the OECs were collected during deoxygenation as previously described (Guarnone et al., Haematologica, 1995, 80, 426-430). p 50 (partial pressure of 02 at which Hb is 50% saturated with 02) values were obtained using a non-linear regression analysis. Percentage change in p 50 [Δp50(%)]was calculated as follows: Δp50(%)=[(p 50 of control)-p 50 with compound)/p 50 control]x 100. The sodium salts of compounds 2B (Enantiomer 1), 4B, and 5B described above were used.

Rat PK, oral gavage = type: in vivo; settings: fasted male Sprague-Dawley rats, oral gavage 2 mg/kg and/or 10 mg/kg, sodium salt of 5B used; for T1/2: blood; for half-life: male, Sprague-Dawley, rat, whole blood, po
Procedure: A group of fasted male Sprague-Dawley rats were dosed via oral gavage at 2 mg/kg and/or 10 mg/kg with test articles formulated in 0.5% methylcellulose suspension with 0.01% polysorbate 80 in PBS (phosphate buffered saline). Blood samples were collected through jugular vein at pre-selected time points. Blood samples were prepared by protein precipitation with ACN, vortexed and then centrifuged before supernatants were transferred for bioanalysis. Test article concentrations were measured by HPLC-MS-MS. Pharmacokinetic parameters were calculated using non-compartment analysis. The T1/2 was calculated via a linear regression of the terminal phase of the blood-time concentration profile.
Results for various compounds disclosed herein (sodium salt of compound 5B described above was used) and select reference compounds (Compound A and Compound B) are summarized in Table 5A and Table 5B.

T1 sequence (P69905 2-142 limits assumed): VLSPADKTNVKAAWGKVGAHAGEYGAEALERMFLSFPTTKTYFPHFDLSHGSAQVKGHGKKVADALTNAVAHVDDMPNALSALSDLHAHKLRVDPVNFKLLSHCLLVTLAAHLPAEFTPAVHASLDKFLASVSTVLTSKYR
T1 sequence (P68871 2-147 limits assumed): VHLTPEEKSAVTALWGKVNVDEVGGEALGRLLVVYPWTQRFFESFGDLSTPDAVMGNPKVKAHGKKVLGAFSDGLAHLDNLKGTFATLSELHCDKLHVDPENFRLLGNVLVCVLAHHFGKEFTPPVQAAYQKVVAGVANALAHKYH

## O=Cc1c(O)cccc1OCC1CSCCN1C(=O)c1cccnc1CC(=O)O (single isomer, unassigned) [Compound 2B (Enantiomer 1), 2-{3-[3-[(2-formyl-3-hydroxyphenoxy)methyl]thiomorpholine-4-carbonyl]pyridin-2-yl} acetic acid]
Hb
  Delta-p50 (%): 10.72%

## O=Cc1c(O)cccc1OCC1CSCCN1C(=O)c1ccccc1C(=O)O (single isomer, unassigned) [Compound 5A (Enantiomer 1), 2-(3-((2-formyl-3-hydroxyphenoxy)methyl)thiomorpholine-4-carbonyl) benzoic acid]
Hb
  Delta-p50 (%): 11.04%
Rat PK, oral gavage
  T1/2: 213 h

## O=Cc1c(O)cccc1OCC1CSCCN1C(=O)c1ccccc1C(=O)O (single isomer, unassigned) [Compound 5A (Enantiomer 2), 2-(3-((2-formyl-3-hydroxyphenoxy)methyl)thiomorpholine-4-carbonyl)benzoic acid]
Hb
  Delta-p50 (%): 19.57%
Rat PK, oral gavage
  T1/2: 13 h

## O=Cc1c(O)cccc1OCC1CSCCN1C(=O)c1cccnc1C(=O)O (single isomer, unassigned) [Compound 6B (Enantiomer 1), 3-[3-[(2-formyl-3-hydroxyphenoxy)methyl]thiomorpholine-4-carbonyl]pyridine-2-carboxylic acid]
Hb
  Delta-p50 (%): 14.15%

## O=Cc1c(O)cccc1OC[C@@H]1CCCCN1C(=O)c1ccccc1C(=O)O [Compound 1A, 2-[(2S)-2-[(2-formyl-3-hydroxyphenoxy)methyl]piperidine-1-carbonyl]benzoic acid]
Hb
  Delta-p50 (%): 66.43%
Rat PK, oral gavage
  half-life: 110 h

## O=Cc1c(O)cccc1OC[C@@H]1CCCCN1C(=O)c1cccnc1C(=O)O [Compound 1B, 3-[(2S)-2-[(2-formyl-3-hydroxyphenoxy)methyl]piperidine-1-carbonyl]pyridine-2-carboxylic acid]
Hb
  Delta-p50 (%): 0.4%
Rat PK, oral gavage
  half-life: 11.7 h

## O=Cc1c(O)cccc1OC[C@@H]1COCCN1C(=O)c1ccccc1C(=O)O [Compound 2A, 2-[(3S)-3-[(2-formyl-3-hydroxyphenoxy)methyl]morpholine-4-carbonyl]benzoic acid]
Hb
  Delta-p50 (%): 4.19%

## O=Cc1c(O)cccc1OC[C@@H]1COCCN1C(=O)c1ccccc1CC(=O)O [Compound 3A, 2-{2-[(3S)-3-[(2-formyl-3-hydroxyphenoxy)methyl]morpholine-4-carbonyl]phenyl}acetic acid]
Hb
  Delta-p50 (%): 11.72%

## O=Cc1c(O)cccc1OC[C@@H]1COCCN1C(=O)c1cccnc1C(=O)O [Compound 3B, 3-[(3S)-3-[(2-formyl-3-hydroxyphenoxy)methyl]morpholine-4-carbonyl]pyridine-2-carboxylic acid]
Hb
  Delta-p50 (%): 0.65%

## O=Cc1c(O)cccc1OC[C@@H]1CCCCN1C(=O)c1ccccc1CC(=O)O [Compound 4A, 2-{2-[(2S)-2-[(2-formyl-3-hydroxyphenoxy)methyl]piperidine-1-carbonyl]phenyl} acetic acid]
Hb
  Delta-p50 (%): 63.6%
Rat PK, oral gavage
  half-life: 89.2 h

## O=Cc1c(O)cccc1OC[C@@H]1COCCN1C(=O)c1cccnc1CC(=O)O [Compound 4B, 2-{3-[(3S)-3-[(2-formyl-3-hydroxyphenoxy)methyl]morpholine-4-carbonyl]pyridin-2-yl} acetic acid]
Hb
  Delta-p50 (%): −8.28%

## O=Cc1c(O)cccc1OC[C@@H]1CCCCN1C(=O)c1cccnc1CC(=O)O [Compound 5B, (S)-2-(3-(2-((2-formyl-3-hydroxyphenoxy)methyl)piperidine-1-carbonyl)pyridin-2-yl)acetic acid]
Hb
  Delta-p50 (%): −3.32%
Rat PK, oral gavage
  half-life: 120 h

## O=Cc1c(O)cccc1OCC1CSCCN1C(=O)c1ccccc1CC(=O)O (stereo not drawn) [Compound 6A, 2-(2-{3-[(2-formyl-3-hydroxyphenoxy)methyl]thiomorpholine-4-carbonyl}phenyl)acetic acid]
Hb
  Delta-p50 (%): 5.09%

## O=Cc1c(O)cccc1OC[C@@H]1CCCCN1C(=O)c1ccccc1CCC(=O)O [Compound 7A, 3-{2-[(2S)-2-[(2-formyl-3-hydroxyphenoxy)methyl]piperidine-1-carbonyl]phenyl}propanoic acid]
Hb
  Delta-p50 (%): 77.13%
Rat PK, oral gavage
  half-life: 52 h

## O=Cc1c(O)cccc1OC[C@@H]1COCCN1C(=O)c1ccccc1CCC(=O)O [Compound 8A, 3-{2-[(3S)-3-[(2-formyl-3-hydroxyphenoxy)methyl]morpholine-4-carbonyl]phenyl} propanoic acid]
Hb
  Delta-p50 (%): 55.01%
Rat PK, oral gavage
  half-life: 102 h

## O=Cc1c(O)cccc1OC[C@@H]1CSCCN1C(=O)c1ccccc1CCC(=O)O [Compound 9A, 3-{2-[(3R)-3-[(2-formyl-3-hydroxyphenoxy)methyl]thiomorpholine-4-carbonyl]phenyl}propanoic acid]
Hb
  Delta-p50 (%): 46.78%
Rat PK, oral gavage
  half-life: 88.7 h

## O=Cc1c(O)cccc1OC[C@@H]1CCCCN1C(=O)c1ccccc1 [Reference Compound A, reference compound]
Rat PK, oral gavage
  half-life: 25.9 h

## O=Cc1c(O)cccc1OC[C@@H]1COCCN1C(=O)c1ccccc1 [Reference Compound B, reference compound]
Rat PK, oral gavage
  half-life: 29.8 h

Reference: patent US12649719B2, “Modulators of hemoglobin” (Global Blood Therapeutics, Inc., priority 2020, dated 2026)
